Strand notation (5' to 3'): a small letter for the sugar, then the base; units joined by * are phosphorothioate-linked, units joined directly phosphodiester-linked; [ ] holds rarer units or linkages, { } end groups; capitals alone tell only the bases. e = 2'-O-(2-methoxyethyl) (MOE); [5mC] = 5-methylcytosine; d = 2'-deoxy (DNA)
Assays:
[1] = system: PTP1B mRNA; assay: Dose response for human PTP1B in HuVEC cells, Primer Probe Set 198 (Example 25, Table 86); format: cell-based
Protocol: (§1) Human vascular endothelial (HuVEC) cells were plated at a density of 5000 cells per well and treated as described herein with nM concentrations of short antisense compound as indicated in Table 86. After the treatment period, RNA was isolated from the cells and PTP1B mRNA levels were measured by quantitative real-time PCR, as described herein. PTP1B mRNA levels were adjusted according to total RNA content as measured by RIBOGREEN®. Two different human PTP1B primer probe sets were used to measure mRNA levels. Results with Primer Probe Set (PPS) 198 are shown in Table 86, and results with Primer Probe Set (PPS) 3000 are shown in Table 87. Results are presented as percent inhibition of PTP1B mRNA expression relative to untreated control cells.

[2] = system: PTP1B mRNA; assay: Dose response for human PTP1B in HuVEC cells, Primer Probe Set 3000 (Example 25, Table 87); format: cell-based
Protocol: as §1

[3] = Triglyceride, cholesterol and glucose levels, pre-bleed and post-bleed (Example 4, Table 34); format: in vivo, mouse
Protocol: Eight-week old male C57/BL6 mice (Jackson Laboratory, Bar Harbor, Me.) were administered a single dose of GCGR oligonucleotide by intraperitoneal injection at a concentration of […]. Each dose group consisted of four animals. Shown in Table 31 are the sequences, motifs and conjugates of the GCGR antisense compounds used in this study. Bolded residues indicate 2′-O-methoxyethyl (2′-MOE) moieties. All compounds comprise phosphorothioate internucleoside linkages throughout and each cytosine is replaced with 5-methylcytosine. ISIS 386626, ISIS 386627 and ISIS 386628 further comprise a C16 conjugate group attached to the 2′-O position of the sugar via a diamide linkage (2′-OCH2C(═O)N(H)(CH2)4N(H)C(═O)—(CH2)15CH3). GCGR antisense compounds target published GCGR sequences, including Genbank® Accession No. BC031885.1 (SEQ ID NO: 7).
Mice were sacrificed 48 hours following injection to determine serum transaminase levels (Table 32); liver, white adipose tissue (WAT), spleen and kidney weight (Table 33); cholesterol, triglyceride and glucose levels (Table 34); GCGR mRNA levels (Tables 35-41); and full-length and total oligonucleotide concentration in liver and kidney (Table 42). Endpoints were assessed using methods described herein and well known to those of ordinary skill in the art. Data is included from a pre-treatment bleed (Pre-Bleed) and post-treatment bleed (Post-Bleed).

Substance | % Inhibition of PTP1B mRNA ([1]; PPS 198, 1.11 nM) | % Inhibition of PTP1B mRNA ([1]; PPS 198, 3.33 nM) | % Inhibition of PTP1B mRNA ([1]; PPS 198, 10.0 nM) | % Inhibition of PTP1B mRNA ([1]; PPS 198, 30.0 nM) | % Inhibition of PTP1B mRNA ([2]; PPS 3000, 1.11 nM) | % Inhibition of PTP1B mRNA ([2]; PPS 3000, 3.33 nM) | % Inhibition of PTP1B mRNA ([2]; PPS 3000, 10.0 nM) | % Inhibition of PTP1B mRNA ([2]; PPS 3000, 30.0 nM) | post-bleed glucose levels ([3]; C57/BL6 mice, single i.p. dose, 48 hours) | post-bleed triglyceride levels ([3]; relative to the 5-10-5 MOE gapmer)
398105 (antisense eT*eG*d[5mC]*dA*d[5mC]*dA*dG*dG*d[5mC]*dA*dG*dG*eT*eT) [compound 398105] | 0% | 25% | 79% | 90% | 0% | 35% | 79% | 93% | – | –
398112 (antisense e[5mC]*eA*dG*d[5mC]*d[5mC]*dT*dG*dG*d[5mC]*dA*d[5mC]*d[5mC]*eT*eA) [compound 398112] | 1% | 10% | 73% | 93% | 0% | 26% | 77% | 94% | – | –
398120 (antisense eG*eT*dT*d[5mC]*dA*dA*dG*d[5mC]*dG*dG*d[5mC]*d[5mC]*eT*eA) [compound 398120] | 0% | 31% | 80% | 96% | 0% | 35% | 79% | 93% | – | –
398173 (antisense e[5mC]*dA*dG*d[5mC]*d[5mC]*dT*dG*dG*dG*d[5mC]*dA*e[5mC]) [compound 398173] | 0% | 4% | 80% | 97% | 0% | 18% | 80% | 90% | – | –
399096 (antisense eT*eG*d[5mC]*dT*d[5mC]*dG*dA*dA*d[5mC]*dT*d[5mC]*d[5mC]*eT*eT) [compound 399096] | 3% | 30% | 78% | 96% | 0% | 23% | 75% | 94% | – | –
399102 (antisense eG*eA*dA*dG*dT*d[5mC]*dA*d[5mC]*dT*dG*dG*d[5mC]*eT*eT) [compound 399102] | 0% | 15% | 62% | 88% | 0% | 9% | 60% | 87% | – | –
399113 (antisense eG*eT*dT*dA*dG*dG*d[5mC]*dA*dA*dA*dG*dG*eG*e[5mC]) [compound 399113] | 0% | 31% | 72% | 90% | 0% | 9% | 65% | 90% | – | –
399132 (antisense eG*eG*dG*d[5mC]*dT*dG*dA*dG*dT*dG*dA*d[5mC]*e[5mC]*e[5mC]) [compound 399132] | 0% | 32% | 75% | 95% | 0% | 26% | 76% | 91% | – | –
ISIS 386628: GCGR 2-10-2 MOE gapmer with C16 conjugate group at the 2′-O position via a diamide linkage (antisense TGTCTTGCTGCTTT; chemistry not fully specified) | – | – | – | – | – | – | – | – | generally led to a decrease | greatest dose-dependent effect

— US8188059B2, “Compounds and methods for modulating expression of GCGR” (Isis Pharmaceuticals, Inc., priority 2006, dated 2012)
